Literature values in US20170095440A1, “METHOD OF TREATING CANINE PANCREATITIS” (CK9, LLC, priority 2014, published 2017).

Test system: serine protease
Conditions: hydrolysis products of Camostat Mesilate; cited from earlier work

Structure (SMILES): N=C(N)Nc1ccc(C(=O)O)cc1 [GBA, 4-guanidinobenzoic acid]
- Anti-proteolytic activity: non-active

Structure (SMILES): N=C(N)Nc1ccc(C(=O)Oc2ccc(CC(=O)O)cc2)cc1 [GBPA, 4-(4-guanidino-benzoyloxy) phenylacetic acid]
- Anti-proteolytic activity: active anti-proteolytic metabolite
